# Tests used:
# [1] = target: Serine/threonine-protein kinase B-raf [V600E] (Homo sapiens, UniProt P15056, V600E); test: Not found
# [2] = target: RAF proto-oncogene serine/threonine-protein kinase [Y340D,Y341D] (Homo sapiens, UniProt P04049, Y340D/Y341D); test: Not found
# Description: Not found
# Chain of Serine/threonine-protein kinase B-raf [V600E] (P15056 2-766 V600E limits assumed): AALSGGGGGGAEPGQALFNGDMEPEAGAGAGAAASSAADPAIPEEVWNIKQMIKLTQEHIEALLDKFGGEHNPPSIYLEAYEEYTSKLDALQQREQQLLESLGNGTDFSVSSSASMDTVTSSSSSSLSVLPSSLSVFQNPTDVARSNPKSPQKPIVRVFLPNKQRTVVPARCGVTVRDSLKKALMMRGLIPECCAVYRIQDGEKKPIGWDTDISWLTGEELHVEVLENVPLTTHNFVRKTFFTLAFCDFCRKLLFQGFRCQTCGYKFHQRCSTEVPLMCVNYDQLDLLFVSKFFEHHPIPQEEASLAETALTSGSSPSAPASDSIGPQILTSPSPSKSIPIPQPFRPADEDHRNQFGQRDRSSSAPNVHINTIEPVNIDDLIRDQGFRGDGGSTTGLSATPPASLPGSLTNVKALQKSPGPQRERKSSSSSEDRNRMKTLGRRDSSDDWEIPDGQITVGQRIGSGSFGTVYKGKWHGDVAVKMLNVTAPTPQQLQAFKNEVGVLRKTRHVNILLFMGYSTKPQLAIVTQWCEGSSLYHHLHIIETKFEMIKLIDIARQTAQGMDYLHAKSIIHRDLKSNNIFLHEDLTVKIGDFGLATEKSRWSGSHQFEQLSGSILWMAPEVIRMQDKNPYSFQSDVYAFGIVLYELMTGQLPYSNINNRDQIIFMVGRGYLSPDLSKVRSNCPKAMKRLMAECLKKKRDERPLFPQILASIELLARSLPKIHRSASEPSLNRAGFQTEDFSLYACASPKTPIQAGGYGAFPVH
# Chain of RAF proto-oncogene serine/threonine-protein kinase [Y340D,Y341D] (P04049 whole entry Y340D/Y341D): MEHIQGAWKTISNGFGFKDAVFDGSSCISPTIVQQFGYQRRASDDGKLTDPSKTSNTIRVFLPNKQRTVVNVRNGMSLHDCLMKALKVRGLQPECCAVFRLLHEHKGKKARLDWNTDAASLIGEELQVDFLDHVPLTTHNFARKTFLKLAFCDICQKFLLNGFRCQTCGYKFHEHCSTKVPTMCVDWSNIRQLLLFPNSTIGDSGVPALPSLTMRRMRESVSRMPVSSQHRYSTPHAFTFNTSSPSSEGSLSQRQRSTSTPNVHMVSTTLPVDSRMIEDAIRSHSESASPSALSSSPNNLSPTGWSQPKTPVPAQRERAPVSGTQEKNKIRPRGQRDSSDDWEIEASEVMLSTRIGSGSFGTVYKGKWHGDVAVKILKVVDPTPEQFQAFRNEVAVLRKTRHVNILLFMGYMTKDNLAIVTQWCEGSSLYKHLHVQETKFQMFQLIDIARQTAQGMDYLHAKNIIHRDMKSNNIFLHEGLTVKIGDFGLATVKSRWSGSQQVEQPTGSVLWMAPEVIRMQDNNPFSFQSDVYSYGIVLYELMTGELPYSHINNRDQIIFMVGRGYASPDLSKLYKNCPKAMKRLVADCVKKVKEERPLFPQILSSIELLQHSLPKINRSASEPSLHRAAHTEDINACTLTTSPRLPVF
compound,measurement,setting,value
"CN(C)[C@H]1CCN(Cc2ccc(C(=O)N[C@@H]3[C@H]4Oc5ccc(Oc6ccnc7c6CCC(=O)N7)cc5[C@@H]34)cc2C(F)(F)F)C1 [US9670231, 1.9]",IC50,[1],0.017 µM
"CN(C)[C@@H]1CCN(Cc2ccc(C(=O)N[C@@H]3[C@H]4Oc5ccc(Oc6ccnc7c6CCC(=O)N7)cc5[C@@H]34)cc2C(F)(F)F)C1 [US9670231, 1.10]",IC50,[1],0.014 µM
"O=C1CCc2c(Oc3ccc4c(c3)[C@H]3[C@H](NC(=O)c5ccc(CN6CCC[C@H](O)C6)c(C(F)(F)F)c5)[C@H]3O4)ccnc2N1 [US9670231, 1.15]",IC50,[2],0.0062 µM
"O=C1CCc2c(Oc3ccc4c(c3)[C@H]3[C@H](NC(=O)c5ccc(CN6CCN(CCO)CC6)c(C(F)(F)F)c5)[C@H]3O4)ccnc2N1 [US9670231, 1.17]",IC50,[1],0.0104 µM
"CN(C)C1CCN(Cc2ccc(C(=O)N[C@@H]3[C@H]4Oc5ccc(Oc6ccnc7c6CCC(=O)N7)cc5[C@@H]34)cc2C(F)(F)F)CC1 [US9670231, 1.20]",IC50,[1],0.011 µM
same,IC50,[2],0.0021 µM
"CN1CCN(CCOc2ccc(C(=O)N[C@@H]3[C@H]4Oc5ccc(Oc6ccnc7c6CCC(=O)N7)cc5[C@@H]34)cc2C(F)(F)F)CC1 [US9670231, 1.52]",IC50,[1],0.014 µM
same,IC50,[2],0.0025 µM
"CN1CCN(Cc2ccc(C(=O)N[C@@H]3[C@H]4Oc5ccc(Oc6ccnc7c6COC(=O)N7)cc5[C@@H]34)cc2C(F)(F)F)CC1 [US9670231, 2.2]",IC50,[1],0.011 µM

# — BindingDB's records for patent US9670231 (BeiGene, Ltd, 2017)
